Experimental data: paper PMC5684143, “New melanocortin-like peptide of E. coli can suppress inflammation via the mammalian melanocortin-1 receptor (MC1R): possible endocrine-like function for microbes of the gut” (NPJ Biofilms and Microbiomes, 2017)

Test system: Balb/C mice
Experiment: Cecal ligation and puncture (CLP) polymicrobial sepsis, survival (protocol A)
Assay type: in vivo
Method: In vivo studies were performed in accordance with National Institutes of Health guidelines and with the approval of the North Shore-Long Island Jewish Health System’s Institutional Animal Care and Use Committee (IACUC). In mice, polymicrobial sepsis was induced by surgical ligation and perforation of the cecum, a widely used technique known as CLP. Briefly, male BALB/c mice (7–8 weeks old, 20–25 g) were anesthetized with a mixture of ketamine (100 mg/kg) and xylazine (8 mg/kg) intramuscularly, and a 15 mm midline incision was made to expose the cecum. After ligation of the cecum with a 6.0 silk suture below the junction of the ileo–cecal valve, the ligated cecal stump was perforated once with a 22-gauge needle. […] Survival was monitored twice daily for 2 weeks, at which time survivors were killed (CO2 asphyxia). […] Survival was monitored twice daily after surgery. […]
Kaplan–Meier analysis was used to determine statistical significance of the differences in survival of mice. p ≦ 0.05 was considered significant. Values in the figures were expressed as mean(±)S.E.M. of two or three independent experiments, where each experimental point was derived from duplicates or triplicates. […]
Fig. 6 MECO-1 rescues mice from lethal sepsis. a Endotoxin. […] Survival was monitored daily for 2 weeks. […] Animals were monitored for survival for 14 days. […]

## alpha-melanocyte-stimulating hormone [alpha-MSH]
5 mg/kg (high dose) i.p. twice daily, six doses starting 24 h post-surgery, n = 10, saline 15%
  survival at day 14 after CLP: around 50%
Three experiments pooled, untreated 23% (9 of 39), alpha-MSH 15 of 22, MECO-1 42 of 64
  overall survival after CLP polymicrobial sepsis: 68%
